This is an account of results in BindingDB's records for doi:10.7270/Q24Q7SF3 (Burnham Center For Chemical Genomics, 2010).

In this experiment the target is T1, Alkaline phosphatase, tissue-nonspecific isozyme (Homo sapiens, UniProt P05186).
T1 sequence (P05186 whole entry): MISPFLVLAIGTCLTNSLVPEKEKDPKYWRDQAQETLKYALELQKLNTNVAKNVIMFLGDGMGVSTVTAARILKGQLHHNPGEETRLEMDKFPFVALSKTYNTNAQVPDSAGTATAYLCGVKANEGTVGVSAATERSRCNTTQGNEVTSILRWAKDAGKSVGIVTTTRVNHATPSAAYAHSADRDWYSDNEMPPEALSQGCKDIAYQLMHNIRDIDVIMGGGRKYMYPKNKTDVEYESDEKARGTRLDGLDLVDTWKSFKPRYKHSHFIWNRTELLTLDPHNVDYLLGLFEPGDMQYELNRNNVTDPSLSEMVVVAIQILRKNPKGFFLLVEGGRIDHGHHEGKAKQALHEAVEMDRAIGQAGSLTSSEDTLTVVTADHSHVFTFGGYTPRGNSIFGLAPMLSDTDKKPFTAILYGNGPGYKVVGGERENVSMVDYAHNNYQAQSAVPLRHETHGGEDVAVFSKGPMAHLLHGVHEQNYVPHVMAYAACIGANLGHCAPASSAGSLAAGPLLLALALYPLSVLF
The experiment is described as follows: activation of tissue-nonspecific alkaline phosphatase – biochemical, TNAP isozyme, human IAP uHTS hits, selectivity assay for human IAP activator project, dose response (AID 488886).
In general, EC50 refers to the midpoint of the concentration-response curve. High values mean a need for much substance, low ones an effect from little substance. Consider `CCOC(=O)c1c(C)[nH]c(C(=O)N/N=C/C2C=C([N+](=O)[O-])C=CC2=O)c1C` (stereo not drawn) [ethyl 2,4-dimethyl-5-[[[(E)-(3-nitro-6-oxocyclohexa-2,4-dien-1-ylidene)methyl]amino]carbamoyl]-1H-pyrrole-3-carboxylate], for which the half-maximal effective concentration (EC50) came to 22.3 µM.
The same measure for `COc1cccc(C=NNC(=O)c2[nH][nH]c(=O)c2C)c1O` [N'-[(E)-(5-methoxy-6-oxidanylidene-cyclohexa-2,4-dien-1-ylidene)methyl]-4-methyl-5-oxidanylidene-1,4-dihydropyrazole-3-carbohydrazide]: 8.88 µM; for `CCc1ccc(CN=Nc2ncnc3nc[nH]c23)cc1` [MLS000419199]: 17.7 µM; for `C=c1[nH]n(-c2nc3ccccc3[nH]2)c(=O)c1=CN(C)C` [(4E)-2-(1H-benzimidazol-2-yl)-4-(dimethylaminomethylidene)-5-methyl-pyrazol-3-one]: 11.4 µM.
Molecule `Cn1c(C(C#N)C(=O)c2ccc(Br)s2)nc2ccccc21` (stereo not drawn) [MLS001167394] yielded an EC50 of 45 µM.
For the molecule `Cc1cc(Br)ccc1SCC(=O)OCC(=O)C(C#N)c1nc2ccccc2[nH]1` (stereo not drawn) [2-[(4-bromo-2-methylphenyl)thio]acetic acid [3-cyano-3-(1,3-dihydrobenzimidazol-2-ylidene)-2-oxopropyl] ester], a half-maximal response (EC50) required 24.1 µM.
As for `O=c1c2ccccc2nc(N=NCc2c(O)ccc3ccccc23)n1O` [SMR000145705], the EC50 is above 100 µM.
The same measure for `O=Nc1[nH]c(=O)c(CC(=O)c2ccccc2)nc1NO` [SMR000539633]: above 100 µM.
